Results published in PMC6222357, “Liquid Chromatography-Tandem Mass Spectrometry Simultaneous Determination and Pharmacokinetic Study of Fourteen Alkaloid Components in Dog Plasma after Oral Administration of Corydalis bungeana Turcz Extract” (Molecules : A Journal of Synthetic Chemistry and Natural …, 2018).
Like-named read-outs stand apart in the source and are kept apart here.

Experiments:
[1] = design: method as in PMID 26805956; conditions: rat plasma, single oral administration of C. bungeana extract; cited from earlier work
[2] = Pharmacokinetic study in beagle dogs after oral administration of C. bungeana extract (UHPLC-MS/MS of plasma); conditions: male, beagle, dog, plasma, po, 0.12 g/kg
Experimental: (§2) The developed UHPLC-MS/MS method was employed to determine the pharmacokinetics of the fourteen components in C. bungeana after a single oral administration of 0.12 g/kg (equivalent to 1180.8 µg/kg A, 100.8 µg/kg B, 172.8 µg/kg C, 194.4 µg/kg D, 147.6 µg/kg E, 291.6 µg/kg F, 7.2 µg/kg G, 64.8 µg/kg H, 10.8 µg/kg I, 435.6 µg/kg J, 7.2 µg/kg K, 2851.2 µg/kg L, 694.8 µg/kg M, 928.8µg/kg N) to six beagle dogs. […] According to the Meeh-Rubn method, we established a final oral dosage of 0.12 g/kg in dogs. The plasma concentrations of the fourteen components at each time point were detected and the data gained from six beagle dogs were averaged.
(§3) Before the experiment, the beagle dogs were fasted for 12 h but given water during the research period. Blood (300 µL) was collected from the forelimb vein plexus at a few specific time points (0.083, 0.25, 0.5, 0.75 and 1, 2, 3, 4, 6, 8, 12, 24 h) after the oral administration of the extract of C. bungeana (0.12 g/kg). After centrifugation at 13,000 rpm for 10 min, the plasma was collected immediately and maintained at −80 °C until sample analysis.
(§4) Using a liquid-liquid extraction method, 100 µL of methanol and 50 µL of IS (bifendate) were added to a beagle dog plasma sample (100 µL) followed by vortex for 30 s. Then 3 mL of aether was accurately added and the mixture was vortexed for 60 s. After this step, the samples were put into a centrifuge (XiangYi Technologies, Changsha, Hunan, China). The organic supernatant was pipetted into clean glass tubes individually after centrifugation 3800 rpm for 6 min. The upper organic layer was removed and evaporated to dryness at 40 °C under a stream of nitrogen. The residue was then redissolved with 100 µL of mobile phase (28% acetonitrile), vortexed for 30 s and filtered by a 0.22 µm membrane. A 10 µL aliquot of the solution was injected into the UHPLC-MS/MS system for analysis.
(§5) Concentrations of fourteen alkaloids in beagle dog blood were calculated employing the Excel program (Microsoft Corp., Redmond, WA, USA). Pharmacokinetic parameters were calculated using non-compartmental methods. The elimination rate constant (Ke) was calculated employing the linear regression of the terminal points in a semi-log plot of the plasma concentration against time. The elimination half-life (t1/2) was calculated using the formula. t1/2 = 0.693/Ke(1)
(§6) The area under the blood concentration versus time curve up to the last quantifiable time point (AUC0→t) was calculated by the linear trapezoidal rule. The area under the plasma concentration –time curve to time infinity (AUC0→∞) was calculated as follows: AUC0→∞ = AUC0→t + Ct/Ke(2)
(§7) The maximum observed blood concentration (Cmax) and the time to reach maximum observed blood concentration (Tmax) were obtained directly from the concentration-time curve.

[3] = Room temperature stability of stock solution; assay type: physicochemical; conditions: 25 °C for 24 h, n = 6
Experimental: (§1) The stability of the fourteen analytes in beagle dogs investigated by analyzing QC samples of each analyte at three QC levels (LQC, MQC and HQC) and each level contained six replicates. The short-term stability was assessed during storage for 4 h at ambient temperature. The long-term stability was determined after the QC samples had been stored for 2 weeks at −80 °C. The freeze-thaw stability was determined after three freeze at −80 °C and thaw cycles. and post-preparative stability was during storage for 12 h after sample preparation at 4 °C. The room temperature stability for stock solution was determined after storing the sample at 25 °C for 24 h. A series of concentrations of stability testing QC samples was gained by the calibration curve which was established from freshly prepared standard samples.

[4] = Stability of the analytes in beagle plasma QC samples under different storage conditions; assay type: physicochemical, beagle dog; conditions: n = 6; for Stability (% RE) Long-Term: 2 weeks at −80 °C; for Stability (% RE) Short-Term: 4 h at ambient temperature; for Stability (% RE) Freeze-Thaw: three freeze (−80 °C)-thaw cycles; for Stability (% RE) Post-Preparative: 12 h after sample preparation at 4 °C
Experimental: As illustrated in Table 4. The stability of QC samples at three evaluated concentrations contained low, medium and high under different stored conditions was assessed on the basis of peak areas in comparison with freshly prepared QC sample.
as §1

in vivo = conditions: male, beagle, dog, po, 0.12 g/kg
Experimental: as §2, §3, §4, §5, §6, §7

AUC(0-inf) [2] [ng·h/mL]	AUC(0-t) [2] [ng·h/mL]	Cmax [2] [ng/mL]	Tmax [2] [h]	half-life [2] [h]	Stability (% RE) Post-Preparative ([4]; high QC) [% RE]	Stability (% RE) Post-Preparative ([4]; low QC) [% RE]	Stability (% RE) Post-Preparative ([4]; medium QC) [% RE]	SMILES	Tmax [1] [h]	Stability (% RE) Room Temperature for Stock-Solution ([3]; high QC level) [% RE]	Stability (% RE) Room Temperature for Stock-Solution ([3]; low QC level) [% RE]	Stability (% RE) Long-Term ([4]; high QC in beagle plasma) [% RE]	Stability (% RE) Short-Term ([4]; high QC in beagle plasma) [% RE]	Stability (% RE) Freeze-Thaw ([4]; high QC in beagle plasma) [% RE]	Stability (% RE) Long-Term ([4]; low QC in beagle plasma) [% RE]	Stability (% RE) Short-Term ([4]; low QC in beagle plasma) [% RE]	Stability (% RE) Freeze-Thaw ([4]; low QC in beagle plasma) [% RE]	Stability (% RE) Long-Term ([4]; medium QC in beagle plasma) [% RE]	Stability (% RE) Short-Term ([4]; medium QC in beagle plasma) [% RE]	Stability (% RE) Freeze-Thaw ([4]; medium QC in beagle plasma) [% RE]	other results
747 ± 95.2	682 ± 74.8	237 ± 13.7	0.96 ± 0.1	6.34 ± 1.21	−6.09	12.10	11.32	COc1ccc(CCNC(=O)/C=C/c2ccc(O)c(O)c2)cc1 [Z23, 7′-(3′,4′-dihydroxyphenyl)-N-[(4-methoxyphenyl)-ethyl]propena-mide]	3.71	2.30	3.65	9.00	10.85	12.43	−8.16	10.52	5.35	9.86	9.94	12.92	Stability (% RE) Room Temperature for Stock-Solution ([3]; medium QC level): 1.64 % RE
1080 ± 136	1030 ± 106	434 ± 73.9	0.88 ± 0.13	4.92 ± 1.49	10.57	1.65	11.35	CN1CCc2cc3c(cc2C(=O)Cc2ccc4c(c2C1)OCO4)OCO3 [Protopine, protopine]	1.96			13.11	12.18	10.26	−5.39	5.52	3.72	7.93	8.75	4.17	
								c1c2c(cc3c1OCO3)-c1cc3ccc4c(c3c[n+]1CC2)OCO4 [Coptisine, coptisine]				13.69	7.57	12.83	5.48	10.66	10.21	6.73	−3.05	8.93	AUC(0-inf) (in vivo): 6030 ± 194 ng·h/mL; AUC(0-t) (in vivo): 5960 ± 205 ng·h/mL; Cmax (in vivo): 2260 ± 256 ng/mL; Tmax (in vivo): 0.92 ± 0.13 h; half-life (in vivo): 2.48 ± 0.33 h

SMILES	AUC(0-inf) [2] [ng·h/mL]	AUC(0-t) [2] [ng·h/mL]	Cmax [2] [ng/mL]	Tmax [2] [h]	half-life [2] [h]	Stability (% RE) Post-Preparative ([4]; high QC) [% RE]	Stability (% RE) Post-Preparative ([4]; low QC) [% RE]	Stability (% RE) Post-Preparative ([4]; medium QC) [% RE]	Tmax [1] [h]	Stability (% RE) Room Temperature for Stock-Solution ([3]; high QC level) [% RE]	Stability (% RE) Room Temperature for Stock-Solution ([3]; low QC level) [% RE]	Stability (% RE) Long-Term ([4]; high QC in beagle plasma) [% RE]	Stability (% RE) Short-Term ([4]; high QC in beagle plasma) [% RE]	Stability (% RE) Freeze-Thaw ([4]; high QC in beagle plasma) [% RE]	Stability (% RE) Long-Term ([4]; low QC in beagle plasma) [% RE]	Stability (% RE) Short-Term ([4]; low QC in beagle plasma) [% RE]	Stability (% RE) Freeze-Thaw ([4]; low QC in beagle plasma) [% RE]	Stability (% RE) Long-Term ([4]; medium QC in beagle plasma) [% RE]	Stability (% RE) Short-Term ([4]; medium QC in beagle plasma) [% RE]	Stability (% RE) Freeze-Thaw ([4]; medium QC in beagle plasma) [% RE]	other results
C[n+]1cc2c3c(ccc2c2ccc4cc5c(cc4c21)OCO5)OCO3 [Sanguinarine, sanguinarine]						10.40	7.77	−2.41		−4.02	2.48	11.08	9.29	12.22	13.35	12.41	11.45	7.46	−5.50	8.78	AUC(0-inf) (in vivo): 1350 ± 109 ng·h/mL; AUC(0-t) (in vivo): 1260 ± 107 ng·h/mL; Cmax (in vivo): 533 ± 29.1 ng/mL; Tmax (in vivo): 0.96 ± 0.1 h; half-life (in vivo): 5.63 ± 1.36 h; Stability (% RE) Room Temperature for Stock-Solution ([3]; medium QC level): 3.20 % RE
